Experimental data published in US20250325517A1, “ORAL DOSAGE FORMS OF ELRAGLUSIB” (Actuate Therapeutics, Inc., priority 2022, published 2025).
“And” between values parts separate entries of the source, which are not always exact repeats. Identical values can stand only once. Like-named read-outs stand apart in the source and are kept apart here. Marks after values point to notes of the source that are not given here.

Experiment: Phase 1 crossover PK study: oral solution fed/fasted vs IV infusion in healthy subjects
Assay type: in vivo, human
Protocol: This pharmacokinetic (PK) study in healthy subjects was conducted to characterize and compare the PK parameters in plasma following a single intravenous (IV) dose of Elraglusib Injection, Elraglusib Oral Solution after fasting, and Elraglusib Oral Solution after a high-fat meal (fed). The study was intended to assess the potential feasibility of an oral formulation of elraglusib based on systemic exposure being within the biologically active range. In clinical studies conducted to date, elraglusib Injection (10 mg/mL) is administered IV once or twice per week over multiple hours, which requires a significant amount of time and resources by both patients and site personnel. […] See Example 3 above.
The route of administration is by IV infusion after diluting elraglusib for injection with 0.9% Sodium Chloride Injection.
It is a clear, red solution, free of visible particulate matter and a low bioburden liquid dosage form that is self-preserving against microbial growth.
Subjects received a single 3.3 mg/kg dose of each of the following in a randomly assigned order separated by a 2-week period.
During the study, the high fat meal was administered over a period of under 30 minutes (in almost all cases, 28 minutes).
Elraglusib Injection (10 mg/mL) administered as an IV infusion over 60 minutes (concentration in mg/mL and infusion rate in mL/kg/hour could vary depending on the subject's body weight).
PK parameters including AUC, Cmax, Tmax, and t1/2 were analyzed by standard non-compartmental analysis (NCA) methods following each of the elraglusib doses. Log transformed Cmax and AUC parameters in subjects having adequate PK data following at least 1 of the oral and IV doses were used to assess the relative bioavailability of the oral dose (fed and/or fasted) compared to the IV dose.
All efforts were made to obtain the PK samples at the scheduled nominal times relative to dosing. PK samples were assayed using validated analytical methods.

[1] = IV infusion 3.3 mg/kg, human plasma

Cn1cc(C2=C(c3coc4ccc(F)cc34)C(=O)NC2=O)c2cc3c(cc21)OCO3 [elraglusib, 3-(5-fluorobenzofuran-3-yl)-4-(5-methyl-5H-[1,3]dioxolo[4,5-f]indol-7-yl)-1H-pyrrole-2,5-dione]
% extrap Arithmetic Mean [1]: 1.146%
% extrap GMean [1]: 0.7979%
% extrap Median [1]: 1.04%
AUC∞/Dose Arithmetic Mean [1]: 33.79 ng·h/mL/mg
AUC∞/Dose GMean [1]: 32.93 ng·h/mL/mg
AUC∞/Dose Median [1]: 32.7 ng·h/mL/mg
Clast Arithmetic Mean [1]: 3.045 ng/mL
Clast GMean [1]: 2.142 ng/mL
Clast Median [1]: 2.64 ng/mL
Cmax/Dose Arithmetic Mean [1]: 6.756 ng/mL/mg
Cmax/Dose GMean [1]: 6.615 ng/mL/mg
Cmax/Dose Median [1]: 7.02 ng/mL/mg
R^2 Arithmetic Mean [1]: 0.9904 #
R^2 GMean [1]: 0.9903 #
R^2 Median [1]: 0.9964 #
λZ Arithmetic Mean [1]: 0.0397 h⁻¹
λZ GMean [1]: 0.0372 h⁻¹
λZ Median [1]: 0.0346 h⁻¹
oral bioavailability vs IV, geometric means of AUClast or AUC∞ (human, fasted state): 14-21%
oral bioavailability vs IV, geometric means of Cmax (human, fasted state): 5-11%
half-life (human, plasma, 3.3 mg/kg, human, read-out: terminal elimination half-life, rapid clearance subset of subjects): 7 to 11 h
clearance (human, plasma, iv, 3.3 mg/kg, IV infusion): 7.11 mL/min/kg and 519 mL/min
AUC (human, plasma, iv, 3.3 mg/kg, IV infusion 3.3 mg/kg, human plasma, read-out: AUC24 Arithmetic Mean): 6850 ng·h/mL
AUC (human, plasma, iv, 3.3 mg/kg, IV infusion 3.3 mg/kg, human plasma, read-out: AUC24 GMean): 6730 ng·h/mL
AUC (human, plasma, iv, 3.3 mg/kg, IV infusion 3.3 mg/kg, human plasma, read-out: AUC24 Median): 7200 ng·h/mL
AUC (human, plasma, iv, 3.3 mg/kg, IV infusion 3.3 mg/kg, human plasma, read-out: AUC48 Arithmetic Mean): 7590 ng·h/mL
AUC (human, plasma, iv, 3.3 mg/kg, IV infusion 3.3 mg/kg, human plasma, read-out: AUC48 GMean): 7450 ng·h/mL
AUC (human, plasma, iv, 3.3 mg/kg, IV infusion 3.3 mg/kg, human plasma, read-out: AUC48 Median): 7980 ng·h/mL
AUC (human, plasma, iv, 3.3 mg/kg, IV infusion 3.3 mg/kg, human plasma, read-out: AUC72 Arithmetic Mean): 7840 ng·h/mL
AUC (human, plasma, iv, 3.3 mg/kg, IV infusion 3.3 mg/kg, human plasma, read-out: AUC72 GMean): 7690 ng·h/mL
AUC (human, plasma, iv, 3.3 mg/kg, IV infusion 3.3 mg/kg, human plasma, read-out: AUC72 Median): 8190 ng·h/mL
AUC (human, plasma, iv, 3.3 mg/kg, IV infusion 3.3 mg/kg, human plasma, read-out: AUC96 Arithmetic Mean): 7980 ng·h/mL
AUC (human, plasma, iv, 3.3 mg/kg, IV infusion 3.3 mg/kg, human plasma, read-out: AUC96 GMean): 7810 ng·h/mL
AUC (human, plasma, iv, 3.3 mg/kg, IV infusion 3.3 mg/kg, human plasma, read-out: AUC96 Median): 8250 ng·h/mL
AUC(0-t) (human, plasma, iv, 3.3 mg/kg, IV infusion 3.3 mg/kg, human plasma, read-out: AUClast Arithmetic Mean): 7970 ng·h/mL
AUC(0-t) (human, plasma, iv, 3.3 mg/kg, IV infusion 3.3 mg/kg, human plasma, read-out: AUClast GMean): 7810 ng·h/mL
AUC(0-t) (human, plasma, iv, 3.3 mg/kg, IV infusion 3.3 mg/kg, human plasma, read-out: AUClast Median): 8250 ng·h/mL
AUC(0-inf) (human, plasma, iv, 3.3 mg/kg, IV infusion 3.3 mg/kg, human plasma, read-out: AUC∞ Arithmetic Mean): 8070 ng·h/mL
AUC(0-inf) (human, plasma, iv, 3.3 mg/kg, IV infusion 3.3 mg/kg, human plasma, read-out: AUC∞ GMean): 7900 ng·h/mL
AUC(0-inf) (human, plasma, iv, 3.3 mg/kg, IV infusion 3.3 mg/kg, human plasma, read-out: AUC∞ Median): 8260 ng·h/mL
Cmax (human, plasma, iv, 3.3 mg/kg, IV infusion 3.3 mg/kg, human plasma, read-out: Cmax Arithmetic Mean): 1600 ng/mL
Cmax (human, plasma, iv, 3.3 mg/kg, IV infusion 3.3 mg/kg, human plasma, read-out: Cmax GMean): 1590 ng/mL
Cmax (human, plasma, iv, 3.3 mg/kg, IV infusion 3.3 mg/kg, human plasma, read-out: Cmax Median): 1570 ng/mL
Tmax (human, plasma, iv, 3.3 mg/kg, IV infusion 3.3 mg/kg, human plasma, read-out: Tmax Arithmetic Mean): 1.22 h
Tmax (human, plasma, iv, 3.3 mg/kg, IV infusion 3.3 mg/kg, human plasma, read-out: Tmax GMean): 1.13 h
Tmax (human, plasma, iv, 3.3 mg/kg, IV infusion 3.3 mg/kg, human plasma, read-out: Tmax Median): 1.32 h
half-life (human, plasma, iv, 3.3 mg/kg, IV infusion 3.3 mg/kg, human plasma, read-out: t1/2 Arithmetic Mean (converted)): 19.6 h
half-life (human, plasma, iv, 3.3 mg/kg, IV infusion 3.3 mg/kg, human plasma, read-out: t1/2 GMean (converted)): 18.6 h
half-life (human, plasma, iv, 3.3 mg/kg, IV infusion 3.3 mg/kg, human plasma, read-out: t1/2 Median (converted)): 20.1 h
AUC(0-t) (human, plasma, iv, 3.3 mg/kg, IV infusion 3.3 mg/kg, read-out: AUClast LS Means): 7810 ng·h/mL
AUC(0-inf) (human, plasma, iv, 3.3 mg/kg, IV infusion 3.3 mg/kg, read-out: AUC∞ LS Means): 7900 ng·h/mL
Cmax (human, plasma, iv, 3.3 mg/kg, IV infusion 3.3 mg/kg, read-out: Cmax LS Means): 1590 ng/mL
Cmax (human, plasma, iv, 3.3 mg/kg, human, 3.3 mg/kg IV infusion, read-out: mean Cmax (arithmetic mean)): 1600 ng/mL
AUC(0-inf) (human, plasma, iv, 3.3 mg/kg, human, 3.3 mg/kg IV, read-out: mean AUC∞): 8070 ng·h/mL
Vd (human, plasma, iv, 3.3 mg/kg, human, IV infusion, read-out: volume of distribution): 11.2 L/kg and 822 L
half-life (human, plasma, other: IV or oral, 3.3 mg/kg, human, read-out: terminal elimination half-life, rapid clearance subset of subjects): 6 to 11 h
half-life (human, plasma, other: oral solution (fed and fasted) and IV infusion, 3.3 mg/kg, human, all 3 treatments, read-out: terminal elimination half-life, majority of subjects): 15 to 25 h
half-life (human, plasma, other: oral solution (fed and fasted) and IV infusion, 3.3 mg/kg, human, all three treatments, read-out: mean terminal elimination half-life): 16 to 21 h
Cmax (human, plasma, po, 3.3 mg/kg, human, 3.3 mg/kg oral solution, fasted state, read-out: mean Cmax (arithmetic mean)): 172 ng/mL
Cmax (human, plasma, po, 3.3 mg/kg, human, 3.3 mg/kg oral solution, fed state, read-out: mean Cmax (arithmetic mean)): 592 ng/mL
AUC(0-inf) (human, plasma, po, 3.3 mg/kg, human, 3.3 mg/kg oral, fasted state, read-out: mean AUC∞): 1810 ng·h/mL
AUC(0-inf) (human, plasma, po, 3.3 mg/kg, human, 3.3 mg/kg oral, fed state, read-out: mean AUC∞): 5000 ng·h/mL
bioavailability (human, plasma, po, 3.3 mg/kg, human, 3.3 mg/kg, fasted state (Cmax and AUC based), read-out: oral bioavailability): 5 to 21%
bioavailability (human, plasma, po, 3.3 mg/kg, human, 3.3 mg/kg, fed state (Cmax and AUC based), read-out: oral bioavailability): 19 to 63%
half-life (human, plasma, po, 3.3 mg/kg, human, subject 113, oral fed state, read-out: longest terminal half-life (converted)): 50.5 h
half-life (human, plasma, po, 3.3 mg/kg, human, subject 118, oral fasted state, read-out: shortest half-life (converted)): 6.92 h
bioavailability (human, plasma, po, 3.3 mg/kg, human, read-out: relative bioavailability following oral dosing in the fed state, one subject (105)): 91%
AUC (human, plasma, po, 3.3 mg/kg, oral 3.3 mg/kg fasted state, human plasma, read-out: AUC24 Arithmetic Mean): 1230 ng·h/mL
AUC (human, plasma, po, 3.3 mg/kg, oral 3.3 mg/kg fasted state, human plasma, read-out: AUC24 GMean): 1010 ng·h/mL
AUC (human, plasma, po, 3.3 mg/kg, oral 3.3 mg/kg fasted state, human plasma, read-out: AUC24 Median): 1070 ng·h/mL
AUC (human, plasma, po, 3.3 mg/kg, oral 3.3 mg/kg fasted state, human plasma, read-out: AUC48 Arithmetic Mean): 1620 ng·h/mL
AUC (human, plasma, po, 3.3 mg/kg, oral 3.3 mg/kg fasted state, human plasma, read-out: AUC48 GMean): 1340 ng·h/mL
AUC (human, plasma, po, 3.3 mg/kg, oral 3.3 mg/kg fasted state, human plasma, read-out: AUC48 Median): 1420 ng·h/mL
AUC (human, plasma, po, 3.3 mg/kg, oral 3.3 mg/kg fasted state, human plasma, read-out: AUC72 Arithmetic Mean): 1740 ng·h/mL
AUC (human, plasma, po, 3.3 mg/kg, oral 3.3 mg/kg fasted state, human plasma, read-out: AUC72 GMean): 1430 ng·h/mL
AUC (human, plasma, po, 3.3 mg/kg, oral 3.3 mg/kg fasted state, human plasma, read-out: AUC72 Median): 1530 ng·h/mL
AUC (human, plasma, po, 3.3 mg/kg, oral 3.3 mg/kg fasted state, human plasma, read-out: AUC96 Arithmetic Mean): 1780 ng·h/mL
AUC (human, plasma, po, 3.3 mg/kg, oral 3.3 mg/kg fasted state, human plasma, read-out: AUC96 GMean): 1460 ng·h/mL
AUC (human, plasma, po, 3.3 mg/kg, oral 3.3 mg/kg fasted state, human plasma, read-out: AUC96 Median): 1560 ng·h/mL
AUC(0-t) (human, plasma, po, 3.3 mg/kg, oral 3.3 mg/kg fasted state, human plasma, read-out: AUClast Arithmetic Mean): 1780 ng·h/mL
AUC(0-t) (human, plasma, po, 3.3 mg/kg, oral 3.3 mg/kg fasted state, human plasma, read-out: AUClast GMean): 1460 ng·h/mL
AUC(0-t) (human, plasma, po, 3.3 mg/kg, oral 3.3 mg/kg fasted state, human plasma, read-out: AUClast Median): 1560 ng·h/mL
AUC(0-inf) (human, plasma, po, 3.3 mg/kg, oral 3.3 mg/kg fasted state, human plasma, read-out: AUC∞ Arithmetic Mean): 1810 ng·h/mL
AUC(0-inf) (human, plasma, po, 3.3 mg/kg, oral 3.3 mg/kg fasted state, human plasma, read-out: AUC∞ GMean): 1480 ng·h/mL
AUC(0-inf) (human, plasma, po, 3.3 mg/kg, oral 3.3 mg/kg fasted state, human plasma, read-out: AUC∞ Median): 1590 ng·h/mL
CL/F (human, plasma, po, 3.3 mg/kg, oral 3.3 mg/kg fasted state, human plasma, read-out: CL Median (converted)): 34.5 mL/min/kg
Cmax (human, plasma, po, 3.3 mg/kg, oral 3.3 mg/kg fasted state, human plasma, read-out: Cmax Arithmetic Mean): 172 ng/mL
Cmax (human, plasma, po, 3.3 mg/kg, oral 3.3 mg/kg fasted state, human plasma, read-out: Cmax GMean): 133 ng/mL
Cmax (human, plasma, po, 3.3 mg/kg, oral 3.3 mg/kg fasted state, human plasma, read-out: Cmax Median): 169 ng/mL
Tmax (human, plasma, po, 3.3 mg/kg, oral 3.3 mg/kg fasted state, human plasma, read-out: Tmax Arithmetic Mean): 2.7 h
Tmax (human, plasma, po, 3.3 mg/kg, oral 3.3 mg/kg fasted state, human plasma, read-out: Tmax GMean): 2.42 h
